Measured values from ChEMBL document CHEMBL4706511, “Structure-based design, synthesis and bioactivity evaluation of macrocyclic inhibitors of mutant isocitrate dehydrogenase 2 (IDH2) displaying activity in acute myeloid leukemia cells” (Eur J Med Chem, 2020).
Changes are numbered by the printed parent chain. Where a name gives a salt, the structure may show the parent alone.

Legend:
[1] = Cytotoxicity aganist human PBMC cells; type: cell-based
[2] = biological target: Isocitrate dehydrogenase [NADP], mitochondrial (Homo sapiens, UniProt P48735, R140Q); test: Inhibition of IDH2 R140Q mutant (unknown origin) assessed as reduction in NADPH consumption using alpha-ketoglutarate and NADPH as substrate preincubated with enzyme for 15 mins followed by substrate addition by fluorescence based assay
[3] = biological target: T1, Isocitrate dehydrogenase [NADP], mitochondrial (Homo sapiens, UniProt P48735); test: Inhibition of wild type IDH2 (unknown origin) assessed as reduction in NADPH production using sodium(D)-isocitrate and NADP as substrate preincubated with enzyme for 15 mins followed by substrate addition by fluorescence based assay
T1 sequence (P48735 whole entry): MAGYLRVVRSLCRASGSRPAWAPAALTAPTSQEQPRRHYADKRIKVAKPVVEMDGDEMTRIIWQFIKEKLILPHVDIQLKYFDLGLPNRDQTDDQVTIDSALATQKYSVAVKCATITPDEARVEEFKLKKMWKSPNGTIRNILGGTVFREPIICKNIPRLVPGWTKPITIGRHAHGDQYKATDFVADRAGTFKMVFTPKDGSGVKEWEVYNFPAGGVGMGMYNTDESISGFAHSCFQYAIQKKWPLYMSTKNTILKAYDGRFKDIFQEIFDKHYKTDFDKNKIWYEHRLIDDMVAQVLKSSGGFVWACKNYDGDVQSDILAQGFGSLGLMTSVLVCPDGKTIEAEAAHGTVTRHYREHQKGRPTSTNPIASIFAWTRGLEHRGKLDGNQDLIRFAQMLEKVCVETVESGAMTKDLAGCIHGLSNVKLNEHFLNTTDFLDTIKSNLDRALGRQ

WI-38 = test: Cytotoxicity aganist human WI-38 cells; type: cell-based
[4] = biological target: Isocitrate dehydrogenase [NADP], mitochondrial (Homo sapiens, UniProt P48735, R172K); test: Inhibition of IDH2 R172K mutant (unknown origin) assessed as reduction in NADPH consumption using alpha-ketoglutarate and NADPH as substrate preincubated with enzyme for 15 mins followed by substrate addition by fluorescence based assay
[5] = Metabolic stability in human liver microsomes assessed as parent compound remaining at 100 ug/ml measured after 90 mins in presence of NADPH by LC-MS analysis; type: ADME, Microsome; settings: at 100 µg/mL, read-out: Stabilty
[6] = tested on: T2, Isocitrate dehydrogenase [NADP], mitochondrial (Homo sapiens), P48735 [R140Q]; test: Potency index, ratio of AG-221 IC50 to test compound IC50 for IDH2 R140Q mutant (unknown origin) assessed as reduction in NADPH consumption using alpha-ketoglutarate and NADPH as substrate preincubated with enzyme for 15 mins followed by substrate addition by fluorescence based assay
T2 sequence (whole entry): T1 sequence (P48735 whole entry) with R140Q

[7] = Metabolic stability in human liver microsomes assessed as parent compound remaining at 100 ug/ml measured after 45 mins in presence of NADPH by LC-MS analysis; type: ADME, Microsome; settings: at 100 µg/mL, read-out: Stabilty
[8] = Metabolic stability in human liver microsomes assessed as parent compound remaining at 100 ug/ml measured after 15 mins in presence of NADPH by LC-MS analysis; type: ADME, Microsome; settings: at 100 µg/mL, read-out: Stabilty
TF-1 = test: Cytotoxicity aganist human TF-1 cells harboring IDH2 mutant; type: functional, cell-based

Chain of Isocitrate dehydrogenase [NADP], mitochondrial (Homo sapiens, UniProt P48735, R172K) (P48735 40-452 R172K limits assumed): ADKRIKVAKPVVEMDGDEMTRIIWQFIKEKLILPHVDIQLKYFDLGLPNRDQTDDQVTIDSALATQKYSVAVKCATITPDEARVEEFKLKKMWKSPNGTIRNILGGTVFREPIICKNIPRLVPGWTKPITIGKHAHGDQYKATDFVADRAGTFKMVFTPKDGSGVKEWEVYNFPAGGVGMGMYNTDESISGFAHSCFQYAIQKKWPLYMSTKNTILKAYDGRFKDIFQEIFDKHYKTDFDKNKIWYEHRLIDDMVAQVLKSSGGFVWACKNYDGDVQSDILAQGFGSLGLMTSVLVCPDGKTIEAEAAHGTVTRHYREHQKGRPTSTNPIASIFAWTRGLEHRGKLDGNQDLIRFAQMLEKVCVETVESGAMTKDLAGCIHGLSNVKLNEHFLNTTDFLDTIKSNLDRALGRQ
Chain of Isocitrate dehydrogenase [NADP], mitochondrial (Homo sapiens, UniProt P48735, R140Q) (P48735 40-452 R140Q limits assumed): as the sequence (P48735 40-452 R172K limits assumed) above, with R101Q, K133R counted along it

Row | SMILES | IC50 [2] [nM] | IC50 [3] [nM] | IC50 [4] [nM] | remaining at 1.5 h, 100 ug/ml [5] [%] | Ratio IC50 [6] | remaining at 0.75 h, 100 ug/ml [7] [%] | remaining at 0.25 h, 100 ug/ml [8] [%] | IC50 [1] [nM] | IC50 (WI-38) [nM] | IC50 (TF-1) [nM]
1 | FC(F)(F)c1cccc(-c2nc3nc(n2)Nc2cc(Cl)cc(c2)CCCCOCCN3)n1 | 12.2 | > 20000 | 443 | – | – | – | – | – | – | –
2 | Fc1cc2cc(c1)Nc1nc(nc(-c3cccc(C(F)(F)F)n3)n1)NCCOC/C=C\C2 | 29.5 | > 20000 | 688 | – | – | – | – | – | – | –
3 | CC(C)(O)CNc1nc(Nc2ccccc2)nc(-c2cccc(C(F)(F)F)n2)n1 | 98.2 | > 20000 | 1430 | – | – | – | – | – | – | –
4 | Cc1cc2cc(c1)Nc1nc(nc(-c3cccc(C(F)(F)F)n3)n1)NCCOCCCC2 | 22.2 | > 20000 | 1320 | – | – | – | – | – | – | –
5 | CC(C)(O)CNc1nc(Nc2cccc(C(F)(F)F)c2)nc(-c2cccc(C(F)(F)F)n2)n1 | 26 | > 20000 | 119 | 81 | – | 81 | 86 | – | – | > 10000
6 | CC(C)(O)CNc1nc(Nc2ccnc(C(F)(F)F)c2)nc(-c2cccc(C(F)(F)F)n2)n1 [ENASIDENIB MESYLATE] | 124 | – | 319 | – | – | – | – | – | – | –
7 | C=CCOC(C)(C)CNc1nc(Nc2cccc(C(F)(F)F)c2)nc(-c2cccc(C(F)(F)F)n2)n1 | 32.8 | > 20000 | 15.5 | – | – | – | – | – | – | –
8 | C=CCOC(C)(C)CNc1nc(Nc2ccccc2)nc(-c2cccc(C(F)(F)F)n2)n1 | 46 | > 20000 | 167 | – | – | – | – | – | – | > 10000
9 | CC1(C)CNc2nc(nc(-c3cccc(C(F)(F)F)n3)n2)Nc2cc(cc(C(F)(F)F)c2)C/C=C\CO1 | 396 | > 20000 | – | – | – | – | – | – | – | –
10 | FC(F)(F)c1cccc(-c2nc3nc(n2)Nc2cc(Cl)cc(c2)C/C=C\COCCN3)n1 | 36 | > 20000 | 417 | – | – | – | – | – | – | –
11 | Cc1cc2cc(c1)Nc1nc(nc(-c3cccc(C(F)(F)F)n3)n1)NCCOC/C=C\C2 | 37.9 | > 20000 | 830 | – | – | – | – | – | – | –
12 | CC1(C)CNc2nc(nc(-c3cccc(C(F)(F)F)n3)n2)Nc2cc(cc(C(F)(F)F)c2)OCCCO1 | 79.3 | > 20000 | 27.4 | – | – | – | – | – | – | –
13 | CC(C)(O)CNc1nc(Nc2ccncc2)nc(-c2cccc(C(F)(F)F)n2)n1 | 663 | > 20000 | > 10000 | – | – | – | – | – | – | > 10000
14 | CC1CNc2nc(nc(-c3cccc(C(F)(F)F)n3)n2)Nc2cc(cc(C(F)(F)F)c2)C/C=C\CO1 (stereo not given) | 267 | > 20000 | – | – | – | – | – | – | – | –
15 | CC(C)(O)CNc1nc(Nc2ccnc(C(F)(F)F)c2)nc(-c2cccc(C(F)(F)F)n2)n1 [ENASIDENIB] | 35.9 | > 20000 | 269 | – | – | – | – | – | – | –

The next lines start with results.

Row | IC50 [2] [nM] | IC50 [3] [nM] | IC50 [4] [nM] | remaining at 1.5 h, 100 ug/ml [5] [%] | Ratio IC50 [6] | remaining at 0.75 h, 100 ug/ml [7] [%] | remaining at 0.25 h, 100 ug/ml [8] [%] | SMILES | IC50 [1] [nM] | IC50 (WI-38) [nM] | IC50 (TF-1) [nM]
16 | 39.9 | > 20000 | 210 | – | – | – | – | FC(F)(F)c1cc2cc(c1)Nc1nc(nc(-c3cccc(C(F)(F)F)n3)n1)NCCOC/C=C\C2 | 10000 | 10000 | –
17 | 13.8 | 14100 | 17.4 | 90 | 3 | 91 | > 99 | FC(F)(F)c1cc2cc(c1)Nc1nc(nc(-c3cccc(C(F)(F)F)n3)n1)NCCC/C=C/C2 | – | – | –
18 | 6.1 | > 20000 | 219 | 85 | – | 94 | 95 | FC(F)(F)c1cc2cc(c1)Nc1nc(nc(-c3cccc(C(F)(F)F)n3)n1)NCCCCCC2 [listing 1 of 2 here] | – | – | > 10000
19 | 37.6 | > 20000 | 46.9 | – | – | – | – | FC(F)(F)c1cc2cc(c1)Nc1nc(nc(-c3cccc(C(F)(F)F)n3)n1)NCCCC/C=C/C2 | – | – | –
20 | 45.6 | > 20000 | 17.7 | – | – | – | – | CC1CNc2nc(nc(-c3cccc(C(F)(F)F)n3)n2)Nc2cc(cc(C(F)(F)F)c2)CCCCO1 (stereo not given) | – | – | –
21 | 182 | > 20000 | 455 | – | – | – | – | CC1(C)CCNc2nc(nc(-c3cccc(C(F)(F)F)n3)n2)Nc2cc(cc(C(F)(F)F)c2)CCCCO1 | – | – | –
22 | 18.4 | > 20000 | 1570 | 64 | – | 66 | 89 | FC(F)(F)c1cc2cc(c1)OC/C=C\CCNc1nc(nc(-c3cccc(C(F)(F)F)n3)n1)N2 | – | – | –
23 | 51 | > 20000 | 116 | – | – | – | – | FC(F)(F)c1cc2cc(c1)OCCCCCNc1nc(nc(-c3cccc(C(F)(F)F)n3)n1)N2 | – | – | –
24 | 133 | > 20000 | 45.5 | 85 | – | 97 | 93 | FC(F)(F)c1cc2cc(c1)OCCCCCCNc1nc(nc(-c3cccc(C(F)(F)F)n3)n1)N2 | – | – | –
25 | – | – | – | – | 6 | – | – | FC(F)(F)c1cc2cc(c1)Nc1nc(nc(-c3cccc(C(F)(F)F)n3)n1)NCCCCCC2 [listing 2 of 2 here] | – | – | –
26 | 19.9 | > 20000 | 30.1 | – | – | – | – | FC(F)(F)c1cc2cc(c1)Nc1nc(nc(-c3cccc(C(F)(F)F)n3)n1)NCCCCCCC2 | – | – | –
27 | 18.6 | > 20000 | 881 | – | – | – | – | Fc1cc2cc(c1)Nc1nc(nc(-c3cccc(C(F)(F)F)n3)n1)NCCOCCCC2 | – | – | –
28 | 64.4 | > 20000 | 517 | – | – | – | – | FC(F)(F)c1cc2cc(c1)Nc1nc(nc(-c3cccc(C(F)(F)F)n3)n1)NCCOCCCC2 | 10000 | 10000 | –
29 | 37.6 | > 20000 | 92.7 | – | – | – | – | FC(F)(F)c1cc2cc(c1)Nc1nc(nc(-c3cccc(C(F)(F)F)n3)n1)NCCCCC/C=C/C2 | – | – | –
30 | 683 | > 20000 | > 10000 | – | – | – | – | FC(F)(F)c1cc2cc(c1)Nc1nc(nc(-c3cccc(C(F)(F)F)n3)n1)NCC/C=C/C2 | – | – | > 10000
31 | 37.2 | > 20000 | 131 | 72 | – | 75 | > 99 | FC(F)(F)c1cc2cc(c1)Nc1nc(nc(-c3cccc(C(F)(F)F)n3)n1)NCCCCCCCC2 | – | – | > 10000
32 | 38.5 | > 20000 | 9.6 | – | – | – | – | CC1(C)CNc2nc(nc(-c3cccc(C(F)(F)F)n3)n2)Nc2cc(cc(C(F)(F)F)c2)CCCCO1 | 10000 | 10000 | –
33 | 17.4 | > 20000 | 50.3 | – | – | – | – | FC(F)(F)c1cc2cc(c1)OC/C=C\CCCNc1nc(nc(-c3cccc(C(F)(F)F)n3)n1)N2 | – | – | –
34 | 699 | > 20000 | > 10000 | – | – | – | – | O=C1NCCCCNc2nc(nc(-c3cccc(C(F)(F)F)n3)n2)Nc2cc1cc(C(F)(F)F)c2 | – | – | –
35 | 1240 | > 20000 | > 10000 | – | – | – | – | FC(F)(F)c1cc2cc(c1)Nc1nc(nc(-c3cccc(C(F)(F)F)n3)n1)NCCCCC2 | – | – | > 10000
36 | 105 | > 20000 | 314 | – | – | – | – | O=C1OCCCCCNc2nc(nc(-c3cccc(C(F)(F)F)n3)n2)Nc2cc1cc(C(F)(F)F)c2 | – | – | –
